Source: patent publication EP3381909A1, “NEW TRIAZINE SUBSTANCE FOR USE IN THE TREATMENT OF CANCER, SPECIFICALLY IN THE TREATMENT OF NON-SMALL CELL CANCER, AND PHARMACEUTICAL COMPOSITION COMPRISING SAID SUBSTANCE” (Universite de Nantes, priority 2017, dated 2018)
Where two headings read alike, the source gives them in different places.

Columns and labels:
[1] = test system: NSCLC-N6-L16; experiment: Cytotoxicity determination, continuous drug exposure (MTT colorimetric assay); format: cell-based; conditions: Homo sapiens, read-out: IC50: Half maximal inhibitory concentration
Protocol: (§1) A549 and NSCLC-N6 cell lines were used for all experiments. They were obtained respectively from an adenocarcinoma and an epidermoid lung cancer. The NSCLC-N6-L16 cell line was derived from a human non-small-cell bronchopulmonary carcinoma (moderately differentiated, classified as T2N0M0). The A549 was obtained from the ATCC collection (reference CCL-185) and is known to have a wild type p53 gene, while NSCLC-N6 has a mutant p53 gene, similar to the in situ tumors.
(§2) Both cell lines were cultured in RPMI-1640 medium with 5% fetal bovine serum, to which were added 100 IU penicillin/ml, 100 µg/mL streptomycin and 2 mM glutamine at 37°C in an air/carbon dioxide (95:5, v/v) atmosphere. The NSCLC-N6-L16 cell line is a model which never exceeded 35 passages in all experiments. Then this model stays very close to the original tumor.
(§3) Experiments were performed in 96-well microtiter plates (10^5 cells/mL for NSCLC-N6-L16 and 2X10^4 cells/mL for A549). Cell growth was estimated by a colorimetric assay based on the conservation of tetrazolium dye (MTT) to a blue formazan product by live mitochondria. Eight repeats were performed for each concentration. Control growth was estimated from 8 determinations. Optical density at 570 nm corresponding to solubilized formazan was read for each well on a Titertek Multiskan MKII.

[2] = test system: A549; experiment: as above; format: cell-based; conditions: for IC50: Homo sapiens, A549 cell line, MTT, read-out: IC50: Half maximal inhibitory concentration
Protocol: as §1, §2, §3

[3] = test system: NSCLC-N6-L16; experiment: Continuous drug exposure growth kinetics over 72 h; format: cell-based, human; conditions: for "plateau" of cytostatic type, time of treatment after which it is visible: NSCLC-N6-L16, highest doses, A190: 104.9 µM, 78.9 µM, A204: 8.4 µM, 5.6 µM
Protocol: as §3
(§4) The kinetics were carried out on the two cell lines NSCLC-N6-L16 and A549 over a time of 72 h. The results are presented in the graphs of figures 1 to 4 representing the cell growth as a function of time. One of the curves represents the cell growth control; the others correspond to the different concentrations tested. The latter are chosen according to the IC50 in order to surround it at best (Table 3).

[4] = test system: A549; experiment: Continuous drug exposure growth kinetics over 72 h; format: cell-based; conditions: for cell growth (proliferation) versus time: A549, 72 h kinetics
Protocol: as §3, §4

[5] = test system: A549 cells synchronised in M phase; conditions: after 17 hours of treatment, previous work; cited from earlier work
[6] = test system: mutant p53, NEDD9 gene; conditions: Rousseau et al., Sci. Rep. 5, 10556, 2015; cited from earlier work
[7] = test system: A549 cells synchronised in M phase; experiment: Gene expression by quantitative real-time RT-PCR in cells synchronised in M phase; format: cell-based; conditions: A549, at 17 hours; treated at the IC50 (figure legend: 39.4µM)
From the text: (§5) During the mitosis, cell shape and adhesion are radically changed. Indeed, this phase induces a depolymerization of the microtubules, a loss of the cytoskeleton and consequently a decrease of the adhesion to the support. […] It is thus easy to isolate these cells by a slight agitation of the culture medium in order to remove and suspend the cells. The cells are then recovered by slow centrifugation and replaced in a new culture flask.
(§6) Total RNA was extracted from NSCLC-N6-L16 and A549 cell lines using the Dynabeads® mRNA DirectTM Kit (Ambion by Life Technologies). The isolation protocol relies on base pairing between the polyA residues at the 3' end of most mRNA and the oligo (dT) residues covalently coupled to the surface of the Dynabeads®. The quality and concentration of purified RNA were assessed using UV absorbance at 260/280 nm and samples were run on 1% agarose gel in order to assess their quality. RNA was stored at - 80 °C.
RT was carried out with 1 µg of RNA in 10 µL with 0.125 µg/µL random primers and RNase-free water. This mixture was denatured at 65°C for 10 min then kept on ice. Subsequently, it was completed to a final volume of 25 µL with a mix containing 8 mM of dNTP mix, 1X of M- MLV 5X reaction buffer, 25 units of recombinant RNasin ribonuclease inhibitor (Promega), and 200 units of M-MLV RT (Promega) and RNase-free water. […]

[8] = test system: synchronized cells; experiment: Activity kinetics on synchronized cells (data not shown); format: cell-based
From the text: as §5
It was observed that the cell doubling time of the cell line NSCLC-N6-L16 is about 17 hours and 22-23 hours for A549. Indeed, the molecule A204 act on different genes such as HEF1, the expression of which is variable along the cell cycle.

[9] = test system: NSCLC-N6-L16 cells synchronised in M phase; experiment: Gene expression by quantitative real-time RT-PCR in cells synchronised in M phase; format: cell-based, human
From the text: as §5, §6
RT was carried out with 1 µg of RNA in 10 µL with 0.125 µg/µL random primers and RNase-free water. This mixture was denatured at 65°C for 10 min then kept on ice. Subsequently, it was completed to a final volume of 25 µL with a mix containing 8 mM of dNTP mix, 1X of M- MLV 5X reaction buffer, 25 units of recombinant RNasin ribonuclease inhibitor (Promega), and 200 units of M-MLV RT (Promega) and RNase-free water. In order to check whether the samples were contaminated by genomic DNA, the same mix was made with RNA without the reverse transcriptase. Following this step, samples were incubated for 2 h at 37°C. cDNAs were stored at -20°C. After reverse transcription, cDNAs were used as a template for specific qPCR.
Real-time RT-PCR was carried out in a final volume of 25 µL with 1µL 1:20 dilution of diluted cDNA mixture, 10 pmol gene-specific forward and 10 pmol reverse primer in 1X SYBR Green PCR master mix (Eurogentec) with the following protocol: 15 s at 95 °C for denaturation, 30 s at 60°C for annealing and extension on a ABI Prism Sequence Detection System 5700 (Applied Biosystems). The primers were designed using Primer 3 (http://frodo.wi.mit.edu/). All primer sequences were controlled with a dimers finder to reduce the risk of unspecific hybridization of Sybr-green (Operon oligo toolkit: see https://www.operon.com(oligos/toolkit.php).
The relative expression of each gene was normalized to that of human β-actin: forward 5'-[…]-3' (SEQ ID NO: 13), reverse 5'-[…]-3' (SEQ ID NO: 14) (10 mM, Sigma Genosys). Normalization was carried out using the ΔΔCt method. Non-template control sample was used for each PCR to check the genomic DNA contaminations of the cDNA template. Analysis of the results was carried out using GenAmp 5700 SDS (Applied Biosystems) software.
The expression of four genes of interests were studied in the cell line NSCLC-N6-L16: HEF1, p53, C3G and FAK. It was carried out by RT-QPCR on the synchronized cells not treated (dark histograms) or treated (grey histograms) by A240 at the IC50. The study was performed between 10 and 17 hours in order to follow the gene expression with an extraction every hour.

NC1=NC(C23CC4CC(CC(C4)C2)C3)N(c2ccc(Cl)cc2)C(N)=N1 (centres unmarked) [A190]
IC50 [1]: 24.1 ± 2.2 µM | IC50 [2]: 71 ± 1.2 µM | cell growth (proliferation) versus time ([3]; NSCLC-N6-L16, 72 h kinetics): reduced for both cell lines in a dose-dependent manner | cytostatic activity since (concentration) ([3]; NSCLC-N6-L16, continuous exposure): ≥ 26.3 µM | "plateau" of cytostatic type, time of treatment after which it is visible [3]: > 48 h | cell growth (proliferation) versus time [4]: reduced for both cell lines in a dose-dependent manner | cytostatic activity since (concentration) ([4]; A549, continuous exposure): ≥ 26.3 µM | plateau of cytostatic type, time of treatment after which it is visible ([4]; A549, A190 at 104.9, 78.9, 52.6, 26 µM): > 48 h | expression of gene AKT [5]: overexpression | expression of gene PI3K [5]: overexpression | expression of the NEDD9 gene [6]: overexpression | mutant p53 activity [6]: restores mutant p53 activity

NC1=NC(C23CC4CC(CC(C4)C2)C3)N(Cc2ccc(Cl)cc2)C(N)=N1 (centres unmarked) [A204, 4,6-diamino-1,2-dihydro-1-(4"-chlorobenzyl)-2-(1-tricyclo [3.3.1.1,4]decyl)-1,3,5-triazine]
expression of gene AKT [7]: overexpression | expression of gene PI3K [7]: overexpression | IC50 [1]: 5.01 ± 0.5 µM | IC50 / amount required compared with A190 ([2]; A549, relative to A190): seven times less | IC50 [2]: 9.7 ± 0.7 µM | time at which the effect of the treatment is beginning [8]: around 30 hours | "plateau" of cytostatic type, time of treatment after which it is visible [3]: > 48 h | cell growth (proliferation) versus time [4]: follow perfectly that of the control cells | expression of gene P53 ([9]; 10 to 17 hours, treated vs control): clearly shows an influence of the treatment on the expression | time of action compared with A190 ([9]; NSCLC-N6-L16, same cytostatic effect, relative to A190): three hours earlier | expression of gene C3G ([9]; at 17 hours (G2 / M phase)): collapse | expression of gene HEF1 ([9]; at around 12 hours, treated at the IC50 (figure legend: 39.4µM) vs control): highly overexpressed | expression of gene C3G ([9]; between 11 and 13 hours (end of G1 phase)): widely overexpressed | expression of gene FAK ([9]; between 12 and 16 hours (phase of synthesis)): decreased expression | expression of gene HEF1 ([9]; between 13 and 15 hours): collapses | expression of gene C3G ([9]; between 13 and 16h): goes up gradually | expression of gene HEF1 ([9]; between 15 and 17 hours (G2 / M phase)): relatively close to the level of the control cells
